Patent publication US20100184807A1, “Methods to inhibit tumor cell growth by using proton pump inhibitors” (Bio-Quant, Inc., priority 2008, published 2010)

Assays:
Format in all cases: cell-based
IGROV 1 (ovarian cancer) = assay: MTT tumor cell growth assay; details: IGROV 1 cells, lansoprazole 1-100 μM, 48 hours
Method: (§1) In one study, adherent cells were plated approximately 16-24 hours before the day of the experiment in 180 μl growth media. On the day of the experiment, the plated adherent cells were analyzed and counted and suspension cells were plated in 180 μl growth media. 10× lansoprazole compounds and vehicle was prepared. The 10× lansoprazole compounds were prepared by diluting lansoprazole to final concentrations of 100 μM, 30 μM, 10 μM, 3 μM, and 1 μM. A vehicle was prepared by preparing a solution of PBS, equivalent to the volume used for 10 μM lansoprazole wherein the 1× solution constitutes ˜0.06% PBS. 10 μl of the various 10× lansoprazole solutions and the vehicle were added to the cells. The cells were incubated at 37° C., 5% CO2 for 48 hours. The media was then aspirated. The cell suspension was then spun at 1500 RPM for 10 minutes. The media was slowly removed. 200 μl of MTT solution was added to each well with a concentration of 0.863 mg/ml MTT in the growth media. The cells were incubated at 37° C., 5% CO2 for 4 hours and the medium is then aspirated. The plate containing the cell suspension was then spun at 1500 RPM for 10 minutes. The media was slowly removed using a multichannel pipettor. 100 μl of DMSO was then added to each well. The cells were incubated at 37° C., 5% CO2 for 5 minutes and the absorbance was obtained at 560 nm using a Dynex Opsys MR plate reader. The cells used for this procedure were the following cell lines: IGROV1 (ovarian cancer); OVCAR 8 (ovarian cancer); ES-2 (ovarian cancer); CAOV3 (ovarian cancer); OVCAR5 (ovarian cancer); SUDHL4 (lymphoma); RPMI8226 (myeloma); RPMI6666 (Hodgkin's lymphoma); NC37 (lymphoma); GDM-1 (leukemia); MC/CAR (prostate cancer); DU-145 (prostate cancer), J45-01 (leukemia), MOLT3 (leukemia), HUT78, J-gamma-1 (leukemia), MCF7 […], COL0205 (colon cancer), HL60 CLONE 15 (leukemia), T47D (breast cancer), P116 (intestinal cancer), KU812 (leukemia), SW620 (colon cancer), MK92-M1 (lymphoma), MV-4-11 (leukemia), HS578T (breast cancer), HT29 (colon cancer), HCT 116 (colon cancer), CAKI-1 (kidney cancer), A549 (lung cancer), H460 (lung cancer), A3 (colon cancer), MDA-MB231 […], MALME 3M (melanoma), RXF393 (kidney cancer), RS4.11 (leukemia), PC3 (prostate cancer), OVCAR3 (ovarian cancer), MDA-MB435 (melanoma), HUT102 (lymphoma), HL60 (leukemia), CCRF-CEM (leukemia), HUT78 (lymphoma), 786-O (kidney cancer), ACHN (kidney cancer), A498 (kidney cancer), H226 (lung cancer), H522 (lung cancer), HOP92 (lung cancer), SNB 19 (brain cancer), OVCAR4 (ovarian cancer), H9 (lymphoma), UO-31 (kidney cancer), HH (lymphoma), DAUDI (leukemia), LOXIMVI (melanoma), NAMALWA (lymphoma), EKVX (lung cancer), DOHH2 (lymphoma), SNB75 (brain cancer), SKMEL28 (melanoma), SKMEL5 (melanoma), SKMEL2 (melanoma), M14 (melanoma), UACC 257 (melanoma), H332M (lung cancer), KM12 (colon cancer), HCC2998 (colon cancer), G401 (kidney cancer), RS1184 (lymphoma), MC116 (leukemia), MOLT4 (leukemia), JM1 (liver cancer), HOP-62 (lung cancer), HCT-15 (colon cancer), SF-539 (brain cancer), SF295 (brain cancer), ST486 (lymphoma), U251 (brain cancer), and UACC-62 (melanoma).

CCRF-CEM (leukemia) = assay: MTT tumor cell growth assay; details: CCRF-CEM cells, lansoprazole 1-100 μM, 48 hours
Method: as §1

HH (lymphoma) = assay: MTT tumor cell growth assay; details: HH cells, lansoprazole 1-100 μM, 48 hours
Method: as §1

HCT-15 (colon cancer) = assay: MTT tumor cell growth assay; details: HCT-15 cells, lansoprazole 1-100 μM, 48 hours
Method: as §1

SW620 (colon cancer) = assay: MTT tumor cell growth assay; details: SW620 cells, lansoprazole 1-100 μM, 48 hours
Method: as §1

A549 (lung cancer) = assay: MTT tumor cell growth assay; details: A549 cells, lansoprazole 1-100 μM, 48 hours
Method: as §1

UACC-62 (melanoma) = assay: MTT tumor cell growth assay; details: UACC-62 cells, lansoprazole 1-100 μM, 48 hours
Method: as §1

HT29 (colon cancer) = assay: MTT tumor cell growth assay; details: HT29 cells, lansoprazole 1-100 μM, 48 hours
Method: as §1

UACC257 (melanoma) = assay: MTT tumor cell growth assay; details: UACC257 cells, lansoprazole 1-100 μM, 48 hours
Method: as §1

M14 (melanoma) = assay: MTT tumor cell growth assay; details: M14 cells, lansoprazole 1-100 μM, 48 hours
Method: as §1

OVCAR4 (ovarian cancer) = assay: MTT tumor cell growth assay; details: OVCAR4 cells, lansoprazole 1-100 μM, 48 hours
Method: as §1

P116 (intestinal cancer) = assay: MTT tumor cell growth assay; details: P116 cells, lansoprazole 1-100 μM, 48 hours
Method: as §1

SKMEL2 (melanoma) = assay: MTT tumor cell growth assay; details: SKMEL2 cells, lansoprazole 1-100 μM, 48 hours
Method: as §1

786-O (kidney cancer) = assay: MTT tumor cell growth assay; details: 786-O cells, lansoprazole 1-100 μM, 48 hours
Method: as §1

HL60 clone 15 (leukemia) = assay: MTT tumor cell growth assay; details: HL60 clone 15 cells, lansoprazole 1-100 μM, 48 hours
Method: as §1

HL60 (leukemia) = assay: MTT tumor cell growth assay; details: HL60 cells, lansoprazole 1-100 μM, 48 hours
Method: as §1

[1] = MTT tumor cell growth assay; details: MCF7 cells, lansoprazole 1-100 μM, 48 hours
Method: as §1

MC116 (leukemia) = assay: MTT tumor cell growth assay; details: MC116 cells, lansoprazole 1-100 μM, 48 hours
Method: as §1

Measured: tumor cell growth reduction

Cc1c(OCC(F)(F)F)ccnc1C[S+]([O-])c1nc2ccccc2[nH]1 (stereo not drawn) [lansoprazole]
significant tumor cell growth reduction: IGROV 1 (ovarian cancer) | CCRF-CEM (leukemia) | HH (lymphoma) | HCT-15 (colon cancer) | SW620 (colon cancer) | A549 (lung cancer) | UACC-62 (melanoma) | HT29 (colon cancer) | UACC257 (melanoma) | M14 (melanoma) | OVCAR4 (ovarian cancer) | P116 (intestinal cancer) | SKMEL2 (melanoma) | 786-O (kidney cancer) | HL60 clone 15 (leukemia) | HL60 (leukemia) | [1] | MC116 (leukemia)
